Legend:
[1] = molecular target: T1, recombinant His-CHK1 (Homo sapiens, UniProt O14757); assay: CHK1 SPA Assay; assay type: biochemical; details: read-out: CHK-1 IC50
T1 construct: His-CHK1, In House Lot P976, MW ˜30 KDa, stored at −80 °C; fused on or other part: His tag
T1 sequence (O14757 1-265 limits assumed): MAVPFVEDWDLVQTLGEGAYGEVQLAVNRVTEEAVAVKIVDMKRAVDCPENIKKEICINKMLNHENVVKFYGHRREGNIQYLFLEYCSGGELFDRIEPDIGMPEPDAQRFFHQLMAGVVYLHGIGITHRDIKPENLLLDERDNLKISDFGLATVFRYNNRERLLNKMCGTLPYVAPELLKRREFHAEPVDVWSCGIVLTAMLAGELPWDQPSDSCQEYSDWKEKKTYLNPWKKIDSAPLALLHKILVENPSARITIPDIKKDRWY
Protocol: An in vitro assay was developed that utilizes recombinant His-CHK1 expressed in the baculovirus expression system as an enzyme source and a biotinylated peptide based on CDC25C as substrate (biotin-[…]).
1) CDC25C Ser 216 C-term Biotinylated peptide substrate (25 mg), stored at −20 °C, Custom Synthesis by Research Genetics: biotin-[…] 2595.4 MW
2) His-CHK1 In House lot P976, 235 ug/mL, stored at −80 °C.
1) Kinase Buffer: 50 mM Tris pH 8.0; 10 mM MgCl2; 1 mM DTT
2) His-CHK1, In House Lot P976, MW ˜30 KDa, stored at −80 °C. […] For 1 plate (100 r×n): dilute 8 μL of 235 μg/mL (7.83 uM) stock in 2 mL Kinase Buffer. This makes a 31 nM mixture. Add 20 μL/well. This makes a final reaction concentration of 6 nM.
3) CDC25C Biotinylated peptide.
Dilute CDC25C to 1 mg/mL (385 uM) stock and store at −20° C. For 1 plate (100 r×n): dilute 10 1L of 1 mg/mL peptide stock in 2 ml Kinase Buffer. This gives a 1.925 μM mix. Add 20 1L/r×n. This makes a final reaction concentration of 385 nM.
For 1 plate (100 r×n): dilute 10 μL of 1 mM ATP (cold) stock and 2 uL fresh P33-ATP (20 μCi) in 5 ml Kinase Buffer. This gives a 2 μM ATP (cold) solution; add 50 μl/well to start the reaction. Final volume is 100 μl/r×n so the final reaction concentrations will be 1 μM ATP (cold) and 0.2 uCi/r×n.
For 1 plate add: To 10 mL Wash Buffer 2 (2M NaCl 1% H3PO4): 1 mL SPA bead slurry (50 mg); Add 100 μL/well
6) Wash buffer 1: 2 M NaCl
7) Wash buffer 2: 2 M NaCl, 1% H3PO4
Dispense 10 μl/r×n to appropriate wells. Add 10 μL 10% DMSO to positive (CHK1+CDC25C+ATP) and negative (CHK1+ATP only) control wells. 2) Thaw enzyme on ice—dilute enzyme to proper concentration in kinase buffer (see Reaction Mixtures) and dispense 20 μl to each well. 3) Thaw the Biotinylated substrate on ice and dilute in kinase buffer (see Reaction Mixtures). Add 20 μL/well except to negative control wells. Instead, add 20 uL Kinase Buffer to these wells. 4) Dilute ATP (cold) and P33-ATP in kinase buffer (see Reaction Mixtures). Add 50 μL/well to start the reaction. 5) Allow the reaction to run for 2 hours at room temperature. 6) Stop reaction by adding 100 uL of the SPA beads/stop solution (see Reaction Mixtures) and leave to incubate for 15 minutes before harvest 7) Place a blank Packard GF/B filter plate into the vacuum filter device (Packard plate harvester) and aspirate […] water through to wet the system. 8) Take out the blank and put in the Packard GF/B filter plate. 9) Aspirate the reaction through the filter plate. 10) Wash: 200 ml each wash; 1× with 2M NaCl; 1× with 2M NaCl/1% H3PO4 11) Allow filter plate to dry 15 min. 12) Put TopSeal-A adhesive on top of filter plate. 13) Run filter plate in Top Count
Settings: • Data mode: CPM • Radio nuclide: Manual SPA:P33 • Scintillator: Liq/plast • Energy Range: Low
(§1) IC50 DETERMINATIONS: Dose-response curves were plotted from inhibition data generated, each in duplicate, from 8 point serial dilutions of inhibitory compounds. Concentration of compound was plotted against % kinase activity, calculated by CPM of treated samples divided by CPM of untreated samples. To generate IC50 values, the dose-response curves were then fitted to a standard sigmoidal curve and IC50 values were derived by nonlinear regression analysis.

[2] = molecular target: T2, Cyclin E/CDK2 (Homo sapiens, UniProt P24941); assay: CDK2 Assay (Cyclin E/CDK2 in vitro kinase assay); assay type: biochemical; details: read-out: CDK2 IC50
T2 construct: made in house; host or cells: SF9 cells (baculovirus co-infection)
Source text: BACULOVIRUS CONSTRUCTIONS: Cyclin E was cloned into pVL1393 (Pharmingen, La Jolla, Calif.) by PCR, with the addition of 5 histidine residues at the amino-terminal end to allow purification on nickel resin. The expressed protein was approximately 45 kDa. CDK2 was cloned into pVL1393 by PCR, with the addition of a haemaglutinin epitope tag at the carboxy-terminal end (YDVPDYAS). The expressed protein was approximately 34 kDa in size.
ENZYME PRODUCTION: Recombinant baculoviruses expressing cyclin E and CDK2 were co-infected into SF9 cells at an equal multiplicity of infection (MOI=5), for 48 hrs. Cells were harvested by centrifugation at 1000 RPM for 10 minutes, then pellets lysed on ice for 30 minutes in five times the pellet volume of lysis buffer containing 50 mM Tris pH 8.0, 1 50 mM NaCl, 1% NP40, 1 mM DTT and protease inhibitors (Roche Diagnostics GmbH, Mannheim, Germany). Lysates were spun down at 15000 RPM for 10 minutes and the supernatant retained. 5 ml of nickel beads (for one liter of SF9 cells) were washed three times in lysis buffer (Qiagen GmbH, Germany). Imidazole was added to the baculovirus supernatant to a final concentration of 20 mM, then incubated with the nickel beads for 45 minutes at 4° C. Proteins were eluted with lysis buffer containing 250 mM imidazole. Eluate was dialyzed overnight in 2 liters of kinase buffer containing 50 mM Tris pH 8.0, 1 mM DTT, 10 mM MgCl2, 100 uM sodium orthovanadate and 20% glycerol. Enzyme was stored in aliquots at −70° C.
IN VITRO KINASE ASSAY: Cyclin E/CDK2 kinase assays were performed in low protein binding 96-well plates (Corning Inc, Corning, N.Y.). Enzyme was diluted to a final concentration of 50 μg/ml in kinase buffer containing 50 mM Tris pH 8.0, 10 mM MgCl2, 1 mM DTT, and 0.1 mM sodium orthovanadate. The substrate used in these reactions was a biotinylated peptide derived from Histone H1 (from Amersham, UK). The substrate was thawed on ice and diluted to 2 μM in kinase buffer. Compounds were diluted in 10% DMSO to desirable concentrations. For each kinase reaction, 20 μl of the 50 µg/ml enzyme solution (1 μg of enzyme) and 20 μl of the 2 μM substrate solution were mixed, then combined with 10 μl of diluted compound in each well for testing. The kinase reaction was started by addition of 50 μl of 2 μM ATP and 0.1 μCi of 33P-ATP (from Amersham, UK). The reaction was allowed to run for 1 hour at room temperature. The reaction was stopped by adding 200 μl of stop buffer containing 0.1% Triton X-100, 1 mM ATP, 5 mM EDTA, and 5 mg/ml streptavidine coated SPA beads (from Amersham, UK) for 15 minutes. The SPA beads were then captured onto a 96-well GF/B filter plate (Packard/Perkin Elmer Life Sciences) using a Filtermate universal harvester (Packard/Perkin Elmer Life Sciences.). Non-specific signals were eliminated by washing the beads twice with 2M NaCl then twice with 2 M NaCl with 1% phosphoric acid. The radioactive signal was then measured using a TopCount 96 well liquid scintillation counter (from Packard/Perkin Elmer Life Sciences).
as §1

Structure (SMILES)	IC50 [1] [nM]	IC50 [2] [nM]
Cc1cc(Nc2nc(CC3CCNC3)cn3c(-c4cnn(C)c4)cnc23)sn1 (stereo not shown)	7	607
Cc1cc(Nc2nc(CC3CCNC3)cn3c(-c4cnn(C)c4)cnc23)sc1S(=O)(=O)N(C)C (stereo not shown)	8	983
Cc1ncc(Nc2nc(C3=CCCNC3)cn3c(-c4cnn(C)c4)cnc23)s1	8	4630
Cc1cc(Nc2nc(C3=CCCNC3)cn3c(-c4cnn(C)c4)cnc23)sc1S(=O)(=O)N(C)C1CC1	18	13100
Cn1cc(-c2cnc3c(Nc4ccc(-n5ccnc5)cc4)nc(C4=CCCNC4)cn23)cn1 [drawing 1440]	97	12500
Cn1cc(-c2cnc3c(Nc4ccc(-n5ccnc5)cc4)nc(C4=CCCNC4)cn23)cn1 [drawing 1445]	97	12500
Cc1cc(Nc2nc(C3=CCCNC3)cn3c(-c4cnn(C)c4)cnc23)sc1S(=O)(=O)NC1CC1 [drawing 1469]	3	1580
Cc1cc(Nc2nc(C3=CCCNC3)cn3c(-c4cnn(C)c4)cnc23)sc1S(=O)(=O)NC1CC1 [drawing 1473]	7	3210
